Assay results reported in publication PMC11790956, “A microscale thermophoresis-based enzymatic RNA methyltransferase assay enables the discovery of DNMT2 inhibitors” (Communications Chemistry, 2025).
Entries after “also recorded” stand apart in the source; their conditions may differ.

Assays:
METTL3/14 = target: T1, METTL3/14 (Homo sapiens, UniProt Q86U44); test: METTL3/14 enzymatic split aptamer MST assay; format: biochemical; settings: 500 µM of hit compound, Fig. 5D
T1 construct: purchased BPS Bioscience BPS-100105
Experimental: Specifically, we studied the m^6A MTase METTL3/14 and the m^7G MTase S. aureus TrmD.
For MTase assay detection by MST, enzyme reaction mixtures with a total volume of 10 µL per single treatment condition were prepared and incubated for the desired reaction times. Inhibitors were added from corresponding DMSO stocks to a final DMSO concentration of max. […] Afterward, reactions were quenched at a given reaction time by the addition of 1 µL sodium dodecyl sulfate (SDS, solution, 3% in water) per 10 µL reaction mixture and mixed well by pipetting. […]
MST experiments were carried out in at least technical triplicates using a Monolith NT.115 instrument (NanoTemper Technologies) using Monolith standard capillaries and the blue excitation laser setup. […] General settings were applied for all MST experiments as follows: manual temperature control: 25 °C, fluorescence measurement before MST: 4 s, MST (IR laser) on: 20 s, fluorescence after MST: 2 s, delay: 25 s. The laser power was adjusted to optimize the signal-to-noise ratio and the fluorescence signal. LED and MST power settings were chosen individually for each sample by adjusting the LED power to yield fluorescence signals of at least 300 units (blue laser) or 3000 units (red laser) and the MST power to achieve an appropriate thermophoretic response (standard setting: medium MST power). […]

DNMT2 = target: T2, DNMT2 (Homo sapiens, UniProt O14717); test: DNMT2 fluorescence polarization (FP) FTAD displacement assay; format: binding
T2 construct: made in house
T2 sequence (O14717 1-391): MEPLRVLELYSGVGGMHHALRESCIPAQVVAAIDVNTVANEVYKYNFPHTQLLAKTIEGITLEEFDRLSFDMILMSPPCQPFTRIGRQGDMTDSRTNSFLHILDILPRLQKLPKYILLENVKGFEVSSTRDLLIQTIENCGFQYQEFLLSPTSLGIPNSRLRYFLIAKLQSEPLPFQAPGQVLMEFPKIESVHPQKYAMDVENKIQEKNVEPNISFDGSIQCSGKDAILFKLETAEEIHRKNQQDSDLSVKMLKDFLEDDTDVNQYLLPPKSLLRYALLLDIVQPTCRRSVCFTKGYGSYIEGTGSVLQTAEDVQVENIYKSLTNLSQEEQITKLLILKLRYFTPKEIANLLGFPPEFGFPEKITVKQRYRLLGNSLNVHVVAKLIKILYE
Experimental: Fluorescence polarization assays were conducted with a similar sample composition as described for FTAD-MST assays as described previously. Triplicates (50 µL) were prepared in black 96-well half-area plates (Greiner) and measured using a Spark 10 M plate reader (Tecan) equipped with polarization filters coupled to a monochromator setup (FTAD: λex = 480 nm, λem = 530 nm). Polarization values (in mP) were calculated from polarization-specific parallel and orthogonal fluorescence intensities according to the Tecan in-built calculation routine.
Reversibility of alexidine binding to DNMT2 was evaluated with a modified FP-assay setup. Briefly, reaction mixtures containing alexidine were prepared in black 96-well half-area plates, and after FP measurement, the volume of one well (50 µL) was collected and applied to a Zeba™ Spin Desalting Column (7 K MWCO) while 5 µL of a 10x DNMT2 buffer solution (500 mM HEPES, 1.5 M NaCl, 10 mM dithiothreitol (DTT), 1% PEG-8000, 0.5% polysorbate-20, pH 7.4) was placed in the collection tube attached to the SEC column. This procedure separated alexidine and restored the initial composition of the DNMT2 assay solution.
Kinetic FP assays were performed to assess the time-dependent inactivation of DNMT2 treated with covalent inhibitors. Briefly, samples contained 2 µM DNMT2, 100 nM FTAD probe, and 1.3% DMSO in DNMT2 MST buffer. Inhibitors were added from DMSO stocks. Negative inhibition control was performed by mock treatment with DMSO. Reactions were initiated by the addition of the Cpd 11 (adamantanyl-acryloylurea) and monitored for 120 min at 25 °C in a Tecan Spark 10 M plate reader (FTAD: λex = 480 nm, λem = 530 nm) The irreversible inhibition kinetics were analyzed as described previously[35],[36].

T1 sequence (Q86U44 2-580 limits assumed): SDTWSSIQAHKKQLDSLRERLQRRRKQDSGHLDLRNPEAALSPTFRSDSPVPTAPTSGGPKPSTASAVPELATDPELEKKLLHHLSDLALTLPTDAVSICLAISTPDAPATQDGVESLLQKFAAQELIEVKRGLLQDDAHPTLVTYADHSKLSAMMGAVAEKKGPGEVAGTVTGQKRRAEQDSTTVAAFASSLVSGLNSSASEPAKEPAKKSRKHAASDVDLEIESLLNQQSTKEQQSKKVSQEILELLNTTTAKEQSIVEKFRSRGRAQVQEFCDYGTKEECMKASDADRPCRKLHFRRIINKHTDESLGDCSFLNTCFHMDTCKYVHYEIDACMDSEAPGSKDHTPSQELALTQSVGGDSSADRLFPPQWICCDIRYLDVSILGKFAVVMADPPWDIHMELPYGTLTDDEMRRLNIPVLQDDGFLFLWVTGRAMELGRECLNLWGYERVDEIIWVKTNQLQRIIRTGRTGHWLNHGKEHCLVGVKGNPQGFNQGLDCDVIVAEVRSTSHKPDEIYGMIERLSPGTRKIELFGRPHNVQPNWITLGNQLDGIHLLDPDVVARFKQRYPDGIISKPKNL
T1 sequence (Q9HCE5 2-456 partner limits assumed): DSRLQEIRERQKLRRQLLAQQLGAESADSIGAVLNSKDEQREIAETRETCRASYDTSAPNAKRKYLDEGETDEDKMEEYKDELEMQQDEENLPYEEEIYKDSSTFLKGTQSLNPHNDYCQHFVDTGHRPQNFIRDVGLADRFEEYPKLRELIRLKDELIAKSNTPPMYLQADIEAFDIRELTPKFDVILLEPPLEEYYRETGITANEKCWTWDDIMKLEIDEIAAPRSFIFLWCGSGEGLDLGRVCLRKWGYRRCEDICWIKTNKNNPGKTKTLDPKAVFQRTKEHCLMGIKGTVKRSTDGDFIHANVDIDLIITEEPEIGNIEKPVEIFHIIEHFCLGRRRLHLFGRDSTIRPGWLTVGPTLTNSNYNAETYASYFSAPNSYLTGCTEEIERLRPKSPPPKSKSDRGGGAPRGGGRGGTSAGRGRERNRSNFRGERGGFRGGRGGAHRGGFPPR

- inhibition of METTL3/14 (selectivity panel) (METTL3/14): did not inhibit
- kinact (DNMT2; kinetic FP assay, kobs vs. [I], 120 min at 25 °C): 0.00285 s⁻¹
SMILES: C=CC(=O)NC(=O)NC12CC3CC(CC(C3)C1)C2 [Cpd 11, 1-(adamantan-1-yl)-3-(prop-2-enoyl)urea]
- displacement of FTAD tracer / binding to SAH-binding site (DNMT2; FP library screening with FTAD tracer): binding to the SAH-binding site; also recorded: displaced the FP-probe FTAD effectively
- time dependence of FTAD displacement (DNMT2; kinetic FP assay): time-dependent DNMT2 inhibition; also recorded: time-dependent displacement of the FTAD FP-tracer
